Test results taken from patent US20040259096A1, “Receptor capture assay” (priority 2001, published 2004).

System: Ah receptor
Assay: Receptor capture assay employing anti-ARNT magnetic microparticles
Type: biochemical
Settings: 1 μl of 1 nM beta-naphthoflavone
Description: Activation of the Ah receptor with dose was performed in a microtiter strip containing 50 μl of Ah receptor preparation, 1 μl of 200 μg/ml biotinylated ARNT, and 1 μl of 1 nM beta-naphthoflavone and incubated for 1 hr at 30° C. To minimize non-specific interactions, 1-2 μg of salmon sperm DNA was added to the activated complex, along with NaCl to a final concentration of 60 mM. After 10 in room temperature, the nucleic acid-tracer (50 fmole) was added, and the reaction allowed to incubate for an additional 10 min at room temperature. Five μl of a 10% solution of microparticles coated with anti-ARNT antibody was added to each well and incubated for 30 min at room temperature on a Wallac microtiter plate shaker. The wells were washed using a using a LifeSep 96P (Dexter, Elk Grove Village, Ill.) magnet designed for separating magnetic particles in a microtiter plate format The strip was placed on the magnetic separator for three minutes. The beads had migrated to the side of the well by this time and the supernatant was removed by aspiration. The beads were washed four additional times with 150 μl of Wash Buffer B. The beads were captured, supernatant removed, and resuspended in the PCR reaction mix and amplified as in Example 2, B. The amplified product was analyzed by gel electrophoresis.

O=c1cc(-c2ccccc2)oc2ccc3ccccc3c12 [BNF, beta-naphthoflavone] was tested, and the “amplified DNA over DMSO vehicle controls (gel electrophoresis)” value was “significant increase in DNA”.
